Consider 18 compounds from PubChem BioAssay AID180 (DTP/NCI, 2004).

The assay has as its system BDF1 mice, Adenocarcinoma 755 s.c., tumor weight T/C. The assay can be described thus: NCI In Vivo Anticancer Drug Screen. Data for tumor model Adenocarcinoma 755 (subcutaneous) in B6D2F1 (BDF1) mice. Particulars: endpoint: mean tumor weight, higher = larger tumour. An outline of the steps:
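Tumor-bearing mice receive test compound while controls get vehicle alone. Antitumor effect is scored from survival or tumor dimensions as a T/C quotient.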

Setting [1] is: dose: 25.0 mg/kg/injection, schedule: Q01DX011 (ip), vehicle: carboxymethylcellulose (CMC).
The mark [2] stands for this setting: dose: 75.0 mg/kg/injection, schedule: Q01DX011 (ip), vehicle: carboxymethylcellulose (CMC).

In general, T/C refers to the result in the treated group divided by that in the control group, in per cent.

Structures are written as SMILES. Where “and” joins values, the source holds several entries; their conditions need not be identical. Equal values may be shown once.

Consider `CS(=O)(=O)OCC(=O)NCCNC(=O)COS(C)(=O)=O`, for which the T/C (dose: 8.75 mg/kg/injection, schedule: Q01DX011 (ip), vehicle: carboxymethylcellulose (CMC)) was 107 % of control; the T/C (dose: 17.5 mg/kg/injection, schedule: Q01DX011 (ip), vehicle: carboxymethylcellulose (CMC)) is 50 % of control; the T/C (dose: 35.0 mg/kg/injection, schedule: Q01DX011 (ip), vehicle: carboxymethylcellulose (CMC)) was 49 % of control; the T/C (dose: 40.0 mg/kg/injection, schedule: Q01DX011 (ip), vehicle: carboxymethylcellulose (CMC)) is 61 % of control; the T/C (dose: 60.0 mg/kg/injection, schedule: Q01DX011 (ip), vehicle: carboxymethylcellulose (CMC)) was 20 % of control; the T/C (dose: 70.0 mg/kg/injection, schedule: Q01DX011 (ip), vehicle: carboxymethylcellulose (CMC)) is 12 % of control. For the same compound, the T/C reads like this: (dose: 95.0 mg/kg/injection, schedule: Q01DX011 (ip), vehicle: carboxymethylcellulose (CMC)) 9 % of control; (dose: 140.0 mg/kg/injection, schedule: Q01DX011 (ip), vehicle: carboxymethylcellulose (CMC)) 2 % of control and 6 % of control; (dose: 210.0 mg/kg/injection, schedule: Q01DX011 (ip), vehicle: carboxymethylcellulose (CMC)) 7 % of control.
For `Clc1ncnc2c1ncn2C1CCCS1` (stereo not given), the T/C (dose: 25.0 mg/kg/injection, schedule: Q01DX011 (ip), vehicle: methylcellulose (MC)) is 107 % of control.
For `C[C@]12CCC(=O)C=C1CC[C@@H]1[C@@H]2[C@@H](O)C[C@@]2(C)[C@H]1CC[C@]2(O)C(=O)COC(=O)CCC(=O)O`, the T/C (dose: 700.0 mg/kg/injection, schedule: Q01DX011 (sc), vehicle: steriod suspending solution) was 10 % of control.
As to `Nc1nc(SC2=NCCN2)c2[nH]cnc2n1`, the T/C reads like this: (dose: 0.75 mg/kg/injection, schedule: Q01DX011 (ip), vehicle: carboxymethylcellulose (CMC)) 22 % of control; (dose: 1.5 mg/kg/injection, schedule: Q01DX011 (ip), vehicle: carboxymethylcellulose (CMC)) 6 % of control; (dose: 3.0 mg/kg/injection, schedule: Q01DX011 (ip), vehicle: carboxymethylcellulose (CMC)) 6 % of control; (dose: 90.0 micrograms/kg/injection, schedule: Q01DX011 (ip), vehicle: carboxymethylcellulose (CMC)) 57 % of control; (dose: 187.0 micrograms/kg/injection, schedule: Q01DX011 (ip), vehicle: carboxymethylcellulose (CMC)) 88 % of control; (dose: 370.0 micrograms/kg/injection, schedule: Q01DX011 (ip), vehicle: carboxymethylcellulose (CMC)) 79 % of control. Also, the T/C (dose: 750.0 micrograms/kg/injection, schedule: Q01DX011 (ip), vehicle: carboxymethylcellulose (CMC)) is 33 % of control.
With `CCCCNC(=O)c1n[se]nc1NC(N)=O`, the T/C is 94 % of control (dose: 4.0 mg/kg/injection, schedule: Q01DX011 (ip), vehicle: carboxymethylcellulose (CMC)); 91 % of control (dose: 8.0 mg/kg/injection, schedule: Q01DX011 (ip), vehicle: carboxymethylcellulose (CMC)); 61 % of control (dose: 16.0 mg/kg/injection, schedule: Q01DX011 (ip), vehicle: carboxymethylcellulose (CMC)); 166 % of control (dose: 37.5 mg/kg/injection, schedule: Q01DX011 (ip), vehicle: carboxymethylcellulose (CMC)); 119 % of control (dose: 50.0 mg/kg/injection, schedule: Q01DX011 (ip), vehicle: carboxymethylcellulose (CMC)).
As to `Nc1ncnc2c1ccn2C1OC(CO)C(O)C1O` (stereo not given), the T/C reads like this: (dose: 0.5 mg/kg/injection, schedule: Q01DX011 (ip), vehicle: carboxymethylcellulose (CMC)) 68 % of control; (dose: 1.0 mg/kg/injection, schedule: Q01DX011 (ip), vehicle: carboxymethylcellulose (CMC)) 76 % of control.
As to `Nc1ncnc2c1ncn2CCCl`, the T/C (dose: 37.5 mg/kg/injection, schedule: Q01DX011 (ip), vehicle: methylcellulose (MC)) was 84 % of control and the T/C (dose: 75.0 mg/kg/injection, schedule: Q01DX011 (ip), vehicle: methylcellulose (MC)) was 31 % of control.
In the case of `CS(=O)(=O)OCCC(=O)N1CN(C(=O)CCOS(C)(=O)=O)CN(C(=O)CCOS(C)(=O)=O)C1`, the T/C runs as follows: (dose: 28.0 mg/kg/injection, schedule: Q01DX011 (ip), vehicle: methylcellulose (MC)) 115 % of control; (dose: 57.0 mg/kg/injection, schedule: Q01DX011 (ip), vehicle: methylcellulose (MC)) 110 % of control; (dose: 225.0 mg/kg/injection, schedule: Q01DX011 (ip), vehicle: methylcellulose (MC)) 81 % of control.
Turning to `Nc1ncnc2c1ncn2CCN(CCO)CCO`, the T/C is, setting by setting: (dose: 25.0 mg/kg/injection, schedule: Q01DX011 (ip), vehicle: saline) 172 % of control; (dose: 225.0 mg/kg/injection, schedule: Q01DX011 (ip), vehicle: saline) 158 % of control.
On to `CN(C)S(=O)(=O)c1nc2nc[nH]c2c(=O)[nH]1`, for which the T/C runs as follows: under setting [1], 70 % of control; under setting [2], 66 % of control; (dose: 225.0 mg/kg/injection, schedule: Q01DX011 (ip), vehicle: carboxymethylcellulose (CMC)) 85 % of control.
For `Cc1ccc(C(=O)OCC2OC(n3cnc4c(=S)nc(N)[nH]c43)C(OC(=O)c3ccc(C)cc3)C2OC(=O)c2ccc(C)cc2)cc1` (stereo not given), the T/C (dose: 100.0 mg/kg/injection, schedule: Q01DX011 (ip), vehicle: carboxymethylcellulose (CMC)) is 81 % of control; the T/C (dose: 200.0 mg/kg/injection, schedule: Q01DX011 (ip), vehicle: carboxymethylcellulose (CMC)) is 4 % of control and 12 % of control.
Regarding `COc1cc2c(c(OC)c1OC)-c1ccc(N)c(=O)cc1[C@@H](NC(C)=O)CC2`, the T/C reads like this: (dose: 0.5 mg/kg/injection, schedule: Q01DX011 (ip), vehicle: saline) 98 % of control; (dose: 2.0 mg/kg/injection, schedule: Q01DX011 (ip), vehicle: saline) 32 % of control and 47 % of control; (dose: 4.0 mg/kg/injection, schedule: Q01DX011 (ip), vehicle: saline) 15 % of control and 37 % of control.
For `Clc1ccccc1CSc1ncnc2nc[nH]c12`, the T/C (dose: 5.0 mg/kg/injection, schedule: Q01DX011 (ip), vehicle: other) was 11 % of control; the T/C (dose: 10.0 mg/kg/injection, schedule: Q01DX011 (ip), vehicle: other) is 2 % of control; the T/C (dose: 31.0 mg/kg/injection, schedule: Q01DX011 (ip), vehicle: other) is 12 % of control; the T/C (dose: 62.0 mg/kg/injection, schedule: Q01DX011 (ip), vehicle: other) is 3 % of control; the T/C (dose: 125.0 mg/kg/injection, schedule: Q01DX011 (ip), vehicle: other) is 3 % of control.
In the case of `O=c1[nH]c(S(=O)(=O)F)nc2nc[nH]c12`, the T/C by setting is: under setting [1], 104 % of control; under setting [2], 53 % of control.
Regarding `Nc1nc(SCc2cccnc2)c2ncn(C3OC(CO)C(O)C3O)c2n1` (stereo not given), the T/C (dose: 1.5 mg/kg/injection, schedule: Q01DX011 (ip), vehicle: methylcellulose (MC)) was 92 % of control; the T/C (dose: 3.1 mg/kg/injection, schedule: Q01DX011 (ip), vehicle: methylcellulose (MC)) is 87 % of control; the T/C (dose: 6.2 mg/kg/injection, schedule: Q01DX011 (ip), vehicle: methylcellulose (MC)) was 12 % of control and 15 % of control.
For `O=c1[nH]c(=O)n(C2CC(O)C(CO)O2)cc1I` (stereo not given), the T/C runs as follows: (dose: 31.25 mg/kg/injection, schedule: Q01DX011 (ip), vehicle: carboxymethylcellulose (CMC)) 62 % of control; (dose: 62.5 mg/kg/injection, schedule: Q01DX011 (ip), vehicle: carboxymethylcellulose (CMC)) 65 % of control; (dose: 125.0 mg/kg/injection, schedule: Q01DX011 (ip), vehicle: carboxymethylcellulose (CMC)) 28 % of control and 51 % of control.
Consider `O=C(O)c1cc(Cl)nc(Cl)n1`, for which the T/C (dose: 31.0 mg/kg/injection, schedule: Q01DX011 (ip), vehicle: methylcellulose (MC)) was 92 % of control; the T/C (dose: 62.0 mg/kg/injection, schedule: Q01DX011 (ip), vehicle: methylcellulose (MC)) was 103 % of control; the T/C (dose: 125.0 mg/kg/injection, schedule: Q01DX011 (ip), vehicle: methylcellulose (MC)) is 105 % of control.
As to `NC(=S)n1cccn1`, the T/C reads like this: (dose: 20.0 mg/kg/injection, schedule: Q01DX011 (ip), vehicle: methylcellulose (MC)) 91 % of control; (dose: 40.0 mg/kg/injection, schedule: Q01DX011 (ip), vehicle: methylcellulose (MC)) 85 % of control; (dose: 80.0 mg/kg/injection, schedule: Q01DX011 (ip), vehicle: methylcellulose (MC)) 44 % of control; (dose: 160.0 mg/kg/injection, schedule: Q01DX011 (ip), vehicle: methylcellulose (MC)) 8 % of control.
